Target: T1, full-length NS3 (1-631) protein (HCV NS3 helicase) (Hepatitis C virus genotype 1a, UniProt P27958)
T1 construct: Recombinant, purified, full-length NS3 (1-631) protein
Assay: HCV Helicase TR-FRET Unwinding Assay
Format: biochemical
Method: HCV Helicase TR-FRET Unwinding Assay
Compound potency was assessed by determining the ability of the compound to inhibit DNA unwinding in an in vitro homogeneous time-resolved fluorescence quench assay. The helicase substrate (Perkin Elmer, TruPoint Helicase Substrate) consisted of partially double-stranded DNA, with one oligonucleotide strand labeled with a fluorescent europium chelate and the other strand labeled with the QSY™ 7 quencher. In the presence of helicase and ATP, this DNA is unwound and a large increase in fluorescence is observed. An excess of an unlabeled oligonucleotide (also from Perkin Elmer, TruPoint Helicase Capture Strand) that is complementary to the quencher strand was included in the assay to prevent reannealing of the europium and QSY-labeled strands.
The assay buffer consisted of 25 mM MOPS (pH 7.0), 500 μM MgCl2, and 0.005% (v/v) Triton X-100, with DMSO being present at a final concentration of 2% (v/v). Recombinant, purified, full-length NS3 (1-631) protein was included in these assays at a final concentration of 2.5 nM. Compound was incubated with NS3 protein for 5 minutes in a 384-well white Proxiplate™ (Perkin Elmer) prior to the addition of TruPoint Helicase Substrate (4 nM final concentration), TruPoint Helicase Capture Strand (15 nM final concentration), and ATP (100 μM final concentration). The final reaction volume was 20 μL. Immediately after the addition of the substrates and capture strand, the initial rates of the unwinding reactions were determined at room temperature via an Envision (Perkin Elmer) plate reader. The rates of reactions containing test compound were compared to those lacking test compound in order to evaluate compound potency. IC50 values were determined using the curve-fitting software XLfit (IDBS).

[1] = Table 4, inhibition of DNA unwinding, 2.5 nM NS3, 100 μM ATP
[2] = second TR-FRET IC50 column (c2) of Table 4, same head as the first, inhibition of DNA unwinding

T1 sequence (P27958 1027-1657 T1100M/T1173A/K1247Q/A1303G/S1327L/G1556E/R1608W): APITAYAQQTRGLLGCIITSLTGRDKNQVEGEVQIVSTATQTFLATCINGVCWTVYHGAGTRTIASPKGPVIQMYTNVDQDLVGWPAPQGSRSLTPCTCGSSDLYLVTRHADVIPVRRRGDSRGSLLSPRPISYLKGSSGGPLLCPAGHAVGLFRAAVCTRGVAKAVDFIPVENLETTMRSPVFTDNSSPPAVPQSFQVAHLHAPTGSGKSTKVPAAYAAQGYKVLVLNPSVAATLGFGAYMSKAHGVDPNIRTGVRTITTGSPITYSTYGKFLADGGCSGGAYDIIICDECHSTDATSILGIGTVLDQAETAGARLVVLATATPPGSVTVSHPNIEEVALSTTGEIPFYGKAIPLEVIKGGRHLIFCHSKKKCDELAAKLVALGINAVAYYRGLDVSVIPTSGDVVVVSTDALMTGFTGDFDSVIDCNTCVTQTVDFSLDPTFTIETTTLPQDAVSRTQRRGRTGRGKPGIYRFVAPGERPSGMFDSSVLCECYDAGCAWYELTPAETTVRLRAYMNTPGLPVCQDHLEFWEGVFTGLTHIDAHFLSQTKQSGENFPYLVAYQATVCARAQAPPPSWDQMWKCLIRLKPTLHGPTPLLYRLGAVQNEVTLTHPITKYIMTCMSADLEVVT

Compound | IC50 [1] | IC50 [2]
O=C(O)C1CCN(C(=O)/C=C/c2ccc(Sc3ccc(F)cc3)cc2C(F)(F)F)CC1 [Example 31B, (E)-1-(3-(4-(4-fluorophenylthio)-2-(trifluoromethyl)phenyl)acryloyl)piperidine-4-carboxylic acid] | 10 to 50 µM | 10 to 50 µM
O=C(/C=C/c1ccc(Sc2ccc(F)cc2)cc1Cl)N1CCOCC1 [Example 3, (E)-3-(2-chloro-4-(4-fluorophenylthio)phenyl)-1-morpholinoprop-2-en-1-one] | 10 to 50 µM | 10 to 50 µM
COc1ccccc1Sc1ccc(/C=C/C(=O)N2CCN(C(=O)c3ccoc3)CC2)c(Cl)c1 [Example 27, (E)-3-(2-chloro-4-(2-methoxyphenylthio)phenyl)-1-(4-(furan-3-carbonyl)piperazin-1-yl)prop-2-en-1-one] | 10 to 50 µM | 10 to 50 µM
COC(=O)C1CCN(C(=O)/C=C/c2ccc(Sc3ccc(F)cc3)cc2Cl)CC1 [Example 5, (E)-methyl 1-(3-(2-chloro-4-(4-fluorophenylthio)phenyl)acryloyl)piperidine-4-carboxylate] | 10 to 50 µM | 10 to 50 µM
Cc1cc(/C=C/C(=O)N2CCOCC2)c(Cl)cc1Sc1ccc(F)cc1 [Example 23, (E)-3-(2-chloro-4-(4-fluorophenylthio)-5-methylphenyl)-1-morpholinoprop-2-en-1-one] | 10 to 50 µM | 10 to 50 µM
Cc1cc(/C=C/C(=O)Nc2cccc(C(=O)O)c2)c(Cl)cc1Sc1ccc(F)cc1 [Example 21, (E)-3-(3-(2-chloro-4-(4-fluorophenylthio)-5-methylphenyl)acrylamido)benzoic acid] | < 10 µM | < 10 µM
Cc1cc(/C=C/C(=O)N2CCN(C(=O)c3ccoc3)CC2)c(Cl)cc1Sc1ccc(F)cc1 [Example 17, (E)-3-(2-chloro-4-(4-fluorophenylthio)-5-methylphenyl)-1-(4-(furan-3-carbonyl)piperazin-1-yl)prop-2-en-1-one] | 10 to 50 µM | 10 to 50 µM
CN(C)c1ccc(/C=C/C(=O)NCCCn2ccnc2)c(Cl)c1 [Example 11, (E)-N-(3-(1H-imidazol-1-yl)propyl)-3-(2-chloro-4-(dimethylamino)phenyl)acrylamide] | 10 to 50 µM | 10 to 50 µM
O=C(/C=C/c1ccccc1Cl)N1Cc2ccccc2C1 [Example 34, (E)-3-(2-chlorophenyl)-1-(isoindolin-2-yl)prop-2-en-1-one] | 10 to 50 µM | 10 to 50 µM
CCN(CC)C(=O)/C=C/c1ccc(Sc2ccccc2OC)cc1Cl [Example 28, (E)-3-(2-chloro-4-(2-methoxyphenylthio)phenyl)-N,N-diethylacrylamide] | 10 to 50 µM | 10 to 50 µM
CN(C)c1ccc(/C=C/C(=O)N2CCN(C(=O)c3ccoc3)CC2)c(Cl)c1 [Example 12, (E)-3-(2-chloro-4-(dimethylamino)phenyl)-1-(4-(furan-3-carbonyl)piperazin-1-yl)prop-2-en-1-one] | 10 to 50 µM | 10 to 50 µM
CN(C)c1ccc(/C=C/C(=O)N2CCOCC2)c(Cl)c1 [Example 13, (E)-3-(2-chloro-4-(dimethylamino)phenyl)-1-morpholinoprop-2-en-1-one] | 10 to 50 µM | 10 to 50 µM
O=C(/C=C/c1ccc(Sc2ccc(F)cc2)cc1Cl)N1CCN(C(=O)c2ccoc2)CC1 [Example 1B, (E)-3-(2-chloro-4-(4-fluorophenylthio)phenyl)-1-(4-(furan-3-carbonyl)piperazin-1-yl)prop-2-en-1-one] | 10 to 50 µM | 10 to 50 µM
Cc1cc(/C=C/C(=O)N2CCC(C(=O)O)CC2)c(Cl)cc1Sc1ccc(F)cc1 [Example 22, (E)-1-(3-(2-chloro-4-(4-fluorophenylthio)-5-methylphenyl)acryloyl)piperidine-4-carboxylic acid] | 10 to 50 µM | < 10 µM
CCN(CC)C(=O)/C=C/c1cc(C)c(Sc2ccc(F)cc2)cc1Cl [Example 18, (E)-3-(2-chloro-4-(4-fluorophenylthio)-5-methylphenyl)-N,N-diethylacrylamide] | 10 to 50 µM | 10 to 50 µM
Cc1cc(/C=C/C(=O)NCCC(=O)O)c(Cl)cc1Sc1ccc(F)cc1 [Example 20, (E)-3-(3-(2-chloro-4-(4-fluorophenylthio)-5-methylphenyl)acrylamido)propanoic acid] | 10 to 50 µM | 10 to 50 µM
CN(C)c1ccc(/C=C/C(=O)NCCN2CCOCC2)c(Cl)c1 [Example 10] | 10 to 50 µM | 10 to 50 µM
CC(=O)N1CCN(C(=O)/C=C/c2ccc(N(C)C)cc2Cl)CC1 [Example 9B, (E)-1-(4-acetylpiperazin-1-yl)-3-(2-chloro-4-(dimethylamino)phenyl)prop-2-en-1-one] | < 10 µM | < 10 µM

Compound | IC50 [1] | IC50 [2]
CCOC(=O)CCNC(=O)/C=C/c1cc(C)c(Sc2ccc(F)cc2)cc1Cl [Example 19, (E)-ethyl 3-(3-(2-chloro-4-(4-fluorophenylthio)-5-methylphenyl)acrylamido)propanoate] | 10 to 50 µM | 10 to 50 µM
COC(=O)c1cccc(NC(=O)/C=C/c2ccc(Sc3ccc(F)cc3)cc2Cl)c1 [Example 7, (E)-methyl 3-(3-(2-chloro-4-(4-fluorophenylthio)phenyl)acrylamido)benzoate] | < 10 µM | < 10 µM
COc1ccccc1Sc1ccc(/C=C/C(=O)N2CCC(C(=O)O)CC2)c(Cl)c1 [Example 26, (E)-1-(3-(2-chloro-4-(2-methoxyphenylthio)phenyl)acryloyl)piperidine-4-carboxylic acid] | 10 to 50 µM | 10 to 50 µM
COc1ccccc1Sc1ccc(/C=C/C(=O)NCCC(=O)O)c(Cl)c1 [Example 29, (E)-3-(3-(2-chloro-4-(2-methoxyphenylthio)phenyl)acrylamido)propanoic acid] | 10 to 50 µM | 10 to 50 µM
O=C(/C=C/c1ccccc1Cl)Nc1ccccc1 [Example 35, (E)-3-(2-chlorophenyl)-N-phenylacrylamide] | 10 to 50 µM | 10 to 50 µM
O=C(O)C1CCN(C(=O)/C=C/c2ccc(Sc3ccc(F)cc3)cc2Cl)CC1 [Example 6] | 10 to 50 µM | 10 to 50 µM
CCN(CC)C(=O)/C=C/c1ccc(Sc2ccc(F)cc2)cc1Cl [Example 4, (E)-3-(2-chloro-4-(4-fluorophenylthio)phenyl)-N,N-diethylacrylamide] | 10 to 50 µM | 10 to 50 µM
COc1ccccc1Sc1ccc(/C=C/C(=O)N2CCC(N3CCCC3)CC2)c(Cl)c1 [Example 30, (E)-3-(2-chloro-4-(2-methoxyphenylthio)phenyl)-1-(4-(pyrrolidin-1-yl)piperidin-1-yl)prop-2-en-1-one] | 10 to 50 µM | 10 to 50 µM
O=C(/C=C/c1ccc(Sc2ccc(F)cc2)cc1Cl)N1CCCCC1 [Example 2, (E)-3-(2-chloro-4-(4-fluorophenylthio)phenyl)-1-(piperidin-1-yl)prop-2-en-1-one] | < 10 µM | < 10 µM
COc1ccccc1Sc1ccc(/C=C/C(=O)NCCC2CCN(C)C2)c(Cl)c1 (stereo not shown) [Example 25, (E)-3-(2-chloro-4-(2-methoxyphenylthio)phenyl)-N-(2-(1-methylpyrrolidin-3-yl)ethyl)acrylamide] | 10 to 50 µM | 10 to 50 µM
O=C(/C=C/c1ccc(Sc2ccc(F)cc2)cc1Cl)Nc1cccc(C(=O)O)c1 [Example 8, (E)-3-(3-(2-chloro-4-(4-fluorophenylthio)phenyl)acrylamido)benzoic acid] | < 10 µM | < 10 µM
COc1ccccc1Sc1ccc(/C=C/C(=O)N2CCC(C(=O)O)CC2)c(Cl)c1Cl [Example 32D, (E)-1-(3-(2,3-dichloro-4-(2-methoxyphenylthio)phenyl)acryloyl)piperidine-4-carboxylic acid] | 10 to 50 µM | 10 to 50 µM
COC(=O)C1CCN(C(=O)/C=C/c2ccc(N(C)C)cc2Cl)CC1 [Example 14, (E)-methyl 1-(3-(2-chloro-4-(dimethylamino)phenyl)acryloyl)piperidine-4-carboxylate] | 10 to 50 µM | 10 to 50 µM
Cc1cc(/C=C/C(=O)N2CCCCC2)c(Cl)cc1Sc1ccc(F)cc1 [Example 16G, (E)-3-(2-chloro-4-(4-fluorophenylthio)-5-methylphenyl)-1-(piperidin-1-yl)prop-2-en-1-one] | 10 to 50 µM | 10 to 50 µM
COc1ccccc1Sc1ccc(/C=C/C(=O)NCCCN(C)C)c(Cl)c1 [Example 24B, (E)-3-(2-chloro-4-(2-methoxyphenylthio)phenyl)-N-(3-(dimethylamino)propyl)acrylamide] | 10 to 50 µM | 10 to 50 µM
CN(C)c1ccc(/C=C/C(=O)N2CCC(C(=O)O)CC2)c(Cl)c1 [Example 15] | 10 to 50 µM | 10 to 50 µM
O=C(/C=C/c1ccccc1Cl)NCCO [Example 33] | 10 to 50 µM | 10 to 50 µM

— patent US20090099186A1, “INHIBITORS OF VIRAL REPLICATION” (priority 2005, published 2009)
